Results: paper PMC8843171 (Journal of Enzyme Inhibition and Medicinal Chemistry, 2022)

Key:
Assay in all cases: stopped-flow CO2 hydrase assay
Assay type in all cases: biochemical
Conditions in all cases: read-out: [drawing 1] / 1
[1] = target: T1, hCA VII (Homo sapiens, UniProt P43166)
T1 construct: gene CA7; recombinant, in-house
From the text: stopped-flow CO2 hydrase assay on hCA VII

[2] = target: T2, hCA VA (Homo sapiens, UniProt P35218)
T2 construct: gene CA5A; recombinant, in-house
From the text: stopped-flow CO2 hydrase assay on hCA VA

[3] = target: T3, hCA XII (Homo sapiens, UniProt O43570)
T3 construct: gene CA12; recombinant, in-house
T3 sequence (O43570 25-354): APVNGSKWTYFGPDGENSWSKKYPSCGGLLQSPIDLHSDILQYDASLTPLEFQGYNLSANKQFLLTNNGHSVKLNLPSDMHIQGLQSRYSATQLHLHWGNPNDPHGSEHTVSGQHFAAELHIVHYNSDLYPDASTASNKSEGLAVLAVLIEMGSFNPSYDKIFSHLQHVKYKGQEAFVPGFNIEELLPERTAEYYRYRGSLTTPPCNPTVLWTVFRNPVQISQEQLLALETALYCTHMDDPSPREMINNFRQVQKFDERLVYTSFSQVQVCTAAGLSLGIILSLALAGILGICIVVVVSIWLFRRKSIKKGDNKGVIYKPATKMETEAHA
From the text: stopped-flow CO2 hydrase assay on hCA XII

[4] = target: T4, hCA I (Homo sapiens, UniProt P00915)
T4 construct: gene CA1; recombinant, in-house
T4 sequence (P00915 2-261): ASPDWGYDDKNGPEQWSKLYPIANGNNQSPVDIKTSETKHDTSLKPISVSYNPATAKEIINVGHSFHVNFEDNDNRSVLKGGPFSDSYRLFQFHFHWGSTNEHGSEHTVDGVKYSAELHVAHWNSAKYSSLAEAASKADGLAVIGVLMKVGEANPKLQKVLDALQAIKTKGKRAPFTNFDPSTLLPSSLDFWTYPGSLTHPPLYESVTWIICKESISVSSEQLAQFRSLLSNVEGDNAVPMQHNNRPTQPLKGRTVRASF
From the text: stopped-flow CO2 hydrase assay on hCA I

[5] = target: T5, hCA VB (Homo sapiens, UniProt Q9Y2D0)
T5 construct: gene CA5B; recombinant, in-house
T5 sequence (Q9Y2D0 34-317): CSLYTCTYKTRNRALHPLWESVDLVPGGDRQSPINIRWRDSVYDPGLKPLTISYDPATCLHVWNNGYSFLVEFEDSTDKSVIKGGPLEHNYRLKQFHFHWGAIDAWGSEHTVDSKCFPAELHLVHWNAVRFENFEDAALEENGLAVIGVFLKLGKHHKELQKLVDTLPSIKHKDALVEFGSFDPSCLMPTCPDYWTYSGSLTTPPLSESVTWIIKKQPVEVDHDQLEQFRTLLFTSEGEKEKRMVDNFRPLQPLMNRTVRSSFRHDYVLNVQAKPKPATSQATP
From the text: stopped-flow CO2 hydrase assay on hCA VB

[6] = target: T6, hCA IV (Homo sapiens, UniProt P22748)
T6 construct: gene CA4; recombinant, in-house
T6 sequence (P22748 19-284): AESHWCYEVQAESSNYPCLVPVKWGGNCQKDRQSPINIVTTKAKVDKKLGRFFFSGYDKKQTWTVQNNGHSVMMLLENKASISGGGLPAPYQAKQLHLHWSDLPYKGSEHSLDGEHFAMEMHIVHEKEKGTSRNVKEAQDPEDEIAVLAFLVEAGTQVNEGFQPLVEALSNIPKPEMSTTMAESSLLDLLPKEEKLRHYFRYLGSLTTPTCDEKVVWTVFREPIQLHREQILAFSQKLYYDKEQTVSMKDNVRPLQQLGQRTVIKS
From the text: stopped-flow CO2 hydrase assay on hCA IV

[7] = target: T7, hCA II (Homo sapiens, UniProt P00918)
T7 construct: gene CA2; recombinant, in-house
From the text: stopped-flow CO2 hydrase assay on hCA II

[8] = target: T8, hCA IX (Homo sapiens, UniProt Q16790)
T8 construct: gene CA9; recombinant, in-house
From the text: stopped-flow CO2 hydrase assay on hCA IX

[9] = target: T9, hCA XIV (Homo sapiens, UniProt Q9ULX7)
T9 construct: gene CA14; recombinant, in-house
T9 sequence (Q9ULX7 16-290 limits assumed): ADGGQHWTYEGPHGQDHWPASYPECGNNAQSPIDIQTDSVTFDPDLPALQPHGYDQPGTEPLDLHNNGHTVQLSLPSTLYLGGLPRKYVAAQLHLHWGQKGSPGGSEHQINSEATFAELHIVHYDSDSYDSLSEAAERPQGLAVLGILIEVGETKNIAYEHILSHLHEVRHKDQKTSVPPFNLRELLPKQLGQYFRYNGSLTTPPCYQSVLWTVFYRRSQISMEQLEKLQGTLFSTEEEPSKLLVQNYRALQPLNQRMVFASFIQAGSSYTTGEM
From the text: stopped-flow CO2 hydrase assay on hCA XIV

[10] = target: T10, hCA VI (Homo sapiens, UniProt P23280)
T10 construct: gene CA6; recombinant, in-house
T10 sequence (P23280 18-308): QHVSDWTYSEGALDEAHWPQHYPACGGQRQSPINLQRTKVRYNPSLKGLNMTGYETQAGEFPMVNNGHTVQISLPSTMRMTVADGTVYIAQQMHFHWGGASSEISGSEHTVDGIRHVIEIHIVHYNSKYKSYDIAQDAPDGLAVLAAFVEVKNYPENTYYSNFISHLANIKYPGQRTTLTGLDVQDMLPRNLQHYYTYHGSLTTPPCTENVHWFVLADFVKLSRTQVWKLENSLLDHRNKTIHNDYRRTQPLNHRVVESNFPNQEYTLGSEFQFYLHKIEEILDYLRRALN
From the text: stopped-flow CO2 hydrase assay on hCA VI

[11] = target: T11, hCA XIII (Homo sapiens, UniProt Q8N1Q1)
T11 construct: gene CA13; recombinant, in-house
T11 sequence (Q8N1Q1 whole entry): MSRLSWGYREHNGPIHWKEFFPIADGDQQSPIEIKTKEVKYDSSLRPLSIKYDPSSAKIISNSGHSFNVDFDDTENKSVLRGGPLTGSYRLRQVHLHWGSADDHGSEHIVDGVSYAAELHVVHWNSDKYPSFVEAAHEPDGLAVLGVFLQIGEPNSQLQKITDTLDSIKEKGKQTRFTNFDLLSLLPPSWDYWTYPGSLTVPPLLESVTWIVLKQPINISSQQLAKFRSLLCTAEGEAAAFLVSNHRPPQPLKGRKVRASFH
From the text: stopped-flow CO2 hydrase assay on hCA XIII

T2 sequence (P35218 39-305): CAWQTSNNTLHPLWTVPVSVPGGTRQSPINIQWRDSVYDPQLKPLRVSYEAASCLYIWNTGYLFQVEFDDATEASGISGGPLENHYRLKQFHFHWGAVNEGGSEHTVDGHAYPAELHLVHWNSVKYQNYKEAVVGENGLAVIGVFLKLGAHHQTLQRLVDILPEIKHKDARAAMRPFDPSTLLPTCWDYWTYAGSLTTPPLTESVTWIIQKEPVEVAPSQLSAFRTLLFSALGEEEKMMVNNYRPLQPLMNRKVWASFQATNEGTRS
T1 sequence (P43166 whole entry): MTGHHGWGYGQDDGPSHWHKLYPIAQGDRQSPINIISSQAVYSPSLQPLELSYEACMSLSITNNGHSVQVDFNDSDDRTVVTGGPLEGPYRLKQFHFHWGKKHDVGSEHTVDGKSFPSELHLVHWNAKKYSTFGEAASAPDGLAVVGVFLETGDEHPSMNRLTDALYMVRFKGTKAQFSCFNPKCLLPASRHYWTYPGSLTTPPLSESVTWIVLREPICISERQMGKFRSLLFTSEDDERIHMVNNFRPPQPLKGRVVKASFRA

Ki [1]: 9.2 µM
Ki [2]: 7.5 µM
Ki [3]: 8.4 µM
Ki [4]: 3.3 µM
Ki [5]: 2.8 µM
Ki [6]: 8.8 µM
Ki [7]: 7.5 µM
Ki [8]: 6.3 µM
Ki [9]: 5.9 µM
Ki [10]: 7 µM
Ki [11]: 87 µM
SMILES: Cc1cnc(C(=O)O)c[n+]1[O-] [compound 1, Acipimox]
